Data published in patent publication US12202850B2, “Cyclobutyl purine derivative or salt thereof” (FUJIFILM Corporation, priority 2018, dated 2025).

Test system: adenovirus type 6 (ADV6)
Assay: Evaluation of anti-adenovirus activity (CRL-11516 cells infected with ADV6, anti-hexon staining)
Type: cell-based
Details: Human mastadenovirus C, 48 h, read-out: Anti-AdV activity EC50

| Structure (SMILES) | EC50 |
| --- | --- |
| COc1nc(N)nc2c1ncn2[C@H]1C[C@@H](COP(=O)(OCCSC(=O)C(C)(C)C)Oc2ccccc2)C1 (stereo partly drawn) [Example 3-1, S-(2-((((cis-3-(2-amino-6-methoxy-9H-purin-9-yl)cyclobutyl)methoxy)(phenoxy)phosphoryl)oxy)ethyl)2,2-dimethylpropanethioate] | 1000 to 10000 nM |
| COc1nc(N)nc2c1ncn2[C@H]1C[C@@H](COP(=O)(N[C@@H](C)C(=O)OCc2ccccc2)Oc2ccccc2)C1 (stereo partly drawn) [Example 3-2-1, Benzyl (((cis-3-(2-amino-6-methoxy-9H-purin-9-yl)cyclobutyl)methoxy) (phenoxy)phosphoryl)-L-alaninate] | 100 to 1000 nM |
| COC(=O)[C@H](C)NP(=O)(OC[C@H]1C[C@@H](n2cnc3c(OC)nc(N)nc32)C1)Oc1ccccc1 (stereo partly drawn) [Example 3-2-2, Methyl (((cis-3-(2-amino-6-methoxy-9H-purin-9-yl)cyclobutyl)methoxy)(phenoxy)phosphoryl)-L-alaninate] | 100 to 1000 nM |
| COC(=O)[C@H](C)NP(=O)(OC[C@H]1C[C@@H](n2cnc3c(OC)nc(N)nc32)C1)Oc1ccc(Cl)cc1 (stereo partly drawn) [Example 8-2-1, Methyl (((cis-3-(2-amino-6-methoxy-9H-purin-9-yl)cyclobutyl)methoxy)(4-chlorophenoxy)phosphoryl)-L-alaninate] | < 100 nM |
| COc1nc(N)nc2c1ncn2[C@H]1C[C@@H](COP(=O)(N[C@@H](C)C(=O)OC(C)C)Oc2ccccc2)C1 (stereo partly drawn) [Example 3-2-4, Isopropyl (((cis-3-(2-amino-6-methoxy-9H-purin-9-yl)cyclobutyl)methoxy) (phenoxy)phosphoryl)-L-alaninate] | 1000 to 10000 nM |
| COC(=O)[C@H](C)NP(=O)(OC[C@H]1C[C@@H](n2cnc3c(OC)nc(N)nc32)C1)Oc1ccc(Br)cc1 (stereo partly drawn) [Example 1-1, methyl (((cis-3-(2-amino-6-methoxy-9H-purin-9-yl)cyclobutyl)methoxy)(4-bromophenoxy)phosphoryl)-L-alaninate] | < 100 nM |
| COC(=O)[C@H](C)NP(=O)(OC[C@H]1C[C@@H](n2cnc3c(OC)nc(N)nc32)C1)Oc1cccc2ccccc12 (stereo partly drawn) [Example 1-2-1, methyl (((cis-3-(2-amino-6-methoxy-9H-purin-9-yl)cyclobutyl)methoxy)(naphthalen-1-yloxy)phosphoryl)-L-alaninate] | 100 to 1000 nM |

Same assay, conditions: Human mastadenovirus C; CRL-11516 cells, ADV6 (50TCID50), 48 hours; 50% reduction of dark brown-stained cells; read-out: Anti-AdV activity EC50

| Structure (SMILES) | EC50 |
| --- | --- |
| Nc1nc2c(ncn2[C@H]2C[C@@H](CO)C2)c(=O)[nH]1 [Comparative Example 1, 2-Amino-9-(cis-3-(hydroxymethyl)cyclobutyl)-1,9-dihydro-6H-purin-6-one, reference compound] | > 10000 nM |

Same assay, conditions: read-out: Anti-AdV activity EC50

| Structure (SMILES) | EC50 |
| --- | --- |
| COC(=O)[C@H](C)NP(=O)(OC[C@H]1C[C@@H](n2cnc3c(OC)nc(N)nc32)C1)Oc1ccc(Cl)cc1 (stereo partly drawn) [Example 8-2-2, Methyl (((cis-3-(2-amino-6-methoxy-9H-purin-9-yl)cyclobutyl)methoxy)(4-chlorophenoxy)phosphoryl)-L-alaninate] | 100 to 1000 nM |
| COC(=O)[C@H](C)NP(=O)(OC[C@H]1C[C@@H](n2cnc3c(OC)nc(N)nc32)C1)Oc1ccc(Cl)cc1 (stereo partly drawn) [Example 1-2-2, Methyl (((cis-3-(2-amino-6-methoxy-9H-purin-9-yl)cyclobutyl)methoxy)(4-chloro-phenoxy)phosphoryl)-L-alaninate] | < 100 nM |
